Two molecules from PMC12421961, “PmeR, a TetR-like transcriptional regulator, is involved in both auxin signaling and virulence in the plant pathogen Pseudomonas syringae strain PtoDC3000” (mBio, 2025) can be followed below.

Data set [1] addresses T1, PmeR (Pseudomonas syringae group genomosp. 3, UniProt Q87X86).
T1 construct: gene PSPTO_4302; full-length coding region (672 bp), N-terminal His tag, pET-28a, E. coli BL21(DE3), codon-optimized; nickel column; tag removal not mentioned
Briefly: EMSA, release of PmeR from […]-labelled operator DNA. The settings on record: 6.25 nM PmeR, 1.5 nM pmeR-mexA intergenic DNA probe, pH 8.0, 25 °C; lowest complete-release concentration in a dilution series, not a Kd or IC50. The class given is binding.

The target in data set [2] is T2, PmeR (TetR-like regulator) (Pseudomonas syringae strain PtoDC3000) (UniProt Q87X86).
T2 sequence: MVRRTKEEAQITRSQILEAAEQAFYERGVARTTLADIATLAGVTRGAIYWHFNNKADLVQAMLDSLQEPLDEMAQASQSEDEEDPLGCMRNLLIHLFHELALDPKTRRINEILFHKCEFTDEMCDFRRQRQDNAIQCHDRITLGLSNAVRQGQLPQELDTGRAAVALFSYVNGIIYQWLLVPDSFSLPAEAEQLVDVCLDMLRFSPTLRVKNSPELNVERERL
Briefly: competition. The conditions noted are these: 25 mM Tris-acetate pH 8.0, 8 mM Mg-acetate, 10 mM KCl, 1 mM DTT, 460 uM HCl ([…].

In the case of `N[C@@H](CCCCNC(=O)Cc1c[nH]c2ccccc12)C(=O)O` [IAA-Lys], in data set [1], the “concentration sufficient for complete shift to unbound DNA” value is on record as 750 µM. “CGGAATTCGGTGCGACGAACCATGGCAATAAGACCTCAAAAGATTCACCTCATGCGTGCATCTGGTGCATGCCTTGAGGTATGACCGGGCGGCATTTGTCTCGCCTTGTCCCGAACTGGCATTCAGCACCTTGAATAGTGGCCGAATGCGCAAAGCGGGTGTTTACAAACAACCGCGAATGTAAGTATATTCCTTAGCATGCTACTTATCTAGCCGAAATATTTTTTAACACTTCAACGTACTGTTGAGAAAACAGGCTCCTGCCCCGAGGATCTTCGGTACCCC (double strand) [pmeR-mexA intergenic region probe]”: in data set [2], the binding result is recorded as “binds”.
